Laboratory results from patent US20100216779A1 (GLAXOSMITHKLINE LLC, priority 2007, published 2010).

Key:
Assay type in all cases: cell-based
[1] = target: T1, IR (NIH-3T3 cells over expressing human IGF-1R or IR) (Homo sapiens, UniProt P06213); assay: IR cellular autophosphorylation (DELFIA); details: NIH-3T3 cells over expressing IR, insulin stimulated
T1 construct: expressed in transfected cells; host or cells: NIH-3T3 (mouse fibroblasts)
Description: (§1) D. IGF-1R and IR Cellular Autophosphorylation (DELFIA)
(§2) NIH-3T3 cells over expressing human IGF-1R or IR were plated in 96-well plates (10,000 cells/well) in culture media containing 10% fetal bovine serum and incubated at 37° C. in a 5% CO2 incubator. Twenty four hours post-plating, cells were treated with different concentrations of test compounds ranging from 30 uM to 1.5 nM. Two hours after compound addition, cells were stimulated with either human IGF-1 (30 ng/mL) or insulin (3 ug/mL) for 15 minutes. Cell lysates are analyzed for phosphorylated receptors using dissociation enhanced lanthanide fluor-immuno assay (DELFIA) with anti-IGF-1R (MAB391, R&D Systems, Minneapolis, Minn.) or anti-IR[…](sc-711, Santa Cruz Biotechnology, Santa Cruz, Calif.) capture antibody and europium-labeled anti-pTyr antibody (Eu-N1 PT66, Perkin Elmer, Waltham, Mass.) for detection. The fluorescence signal for cells treated with compounds was expressed as percent relative to 100% stimulation (IGF-1 or insulin stimulated signal). […]

COLO205 (colon) = assay: Inhibition of cell proliferation, CellTiter-Glo, COLO205; details: Homo sapiens, COLO 205, 72 h
Description: C. Inhibition of Cell Proliferation
Cell proliferation was measured by either CellTiter-Glo (measures cellular ATP level as a surrogate for total cell number) or by InCell analyzer (counts number of nuclei as a measure of cell number). For CellTiter-Glo assay, exponentially growing cell lines of different tumor origins, cultured in appropriate media containing 10% fetal bovine serum at 37° C. in a 5% CO2 incubator, were plated at low density (less than 2000 cells/well) in 96-well plates. […] Several wells were left untreated as a control. Seventy two hours post-treatment, cell numbers were determined using 50-100 ul per well of CellTiter-Glo (Promega #G7573). Plates were incubated at 37° C. for 30 minutes and the chemiluminescent signal was read on the Victor V or Envison 2100 reader. […]

[2] = target: T2, human IGF-1R (NIH-3T3 cells over expressing human IGF-1R) (Homo sapiens, UniProt P08069); assay: IGF-1R cellular autophosphorylation (DELFIA); details: IGF-1 stimulated
T2 construct: expressed in transfected cells; host or cells: NIH-3T3 (mouse fibroblasts)
T2 sequence (P08069 31-1367): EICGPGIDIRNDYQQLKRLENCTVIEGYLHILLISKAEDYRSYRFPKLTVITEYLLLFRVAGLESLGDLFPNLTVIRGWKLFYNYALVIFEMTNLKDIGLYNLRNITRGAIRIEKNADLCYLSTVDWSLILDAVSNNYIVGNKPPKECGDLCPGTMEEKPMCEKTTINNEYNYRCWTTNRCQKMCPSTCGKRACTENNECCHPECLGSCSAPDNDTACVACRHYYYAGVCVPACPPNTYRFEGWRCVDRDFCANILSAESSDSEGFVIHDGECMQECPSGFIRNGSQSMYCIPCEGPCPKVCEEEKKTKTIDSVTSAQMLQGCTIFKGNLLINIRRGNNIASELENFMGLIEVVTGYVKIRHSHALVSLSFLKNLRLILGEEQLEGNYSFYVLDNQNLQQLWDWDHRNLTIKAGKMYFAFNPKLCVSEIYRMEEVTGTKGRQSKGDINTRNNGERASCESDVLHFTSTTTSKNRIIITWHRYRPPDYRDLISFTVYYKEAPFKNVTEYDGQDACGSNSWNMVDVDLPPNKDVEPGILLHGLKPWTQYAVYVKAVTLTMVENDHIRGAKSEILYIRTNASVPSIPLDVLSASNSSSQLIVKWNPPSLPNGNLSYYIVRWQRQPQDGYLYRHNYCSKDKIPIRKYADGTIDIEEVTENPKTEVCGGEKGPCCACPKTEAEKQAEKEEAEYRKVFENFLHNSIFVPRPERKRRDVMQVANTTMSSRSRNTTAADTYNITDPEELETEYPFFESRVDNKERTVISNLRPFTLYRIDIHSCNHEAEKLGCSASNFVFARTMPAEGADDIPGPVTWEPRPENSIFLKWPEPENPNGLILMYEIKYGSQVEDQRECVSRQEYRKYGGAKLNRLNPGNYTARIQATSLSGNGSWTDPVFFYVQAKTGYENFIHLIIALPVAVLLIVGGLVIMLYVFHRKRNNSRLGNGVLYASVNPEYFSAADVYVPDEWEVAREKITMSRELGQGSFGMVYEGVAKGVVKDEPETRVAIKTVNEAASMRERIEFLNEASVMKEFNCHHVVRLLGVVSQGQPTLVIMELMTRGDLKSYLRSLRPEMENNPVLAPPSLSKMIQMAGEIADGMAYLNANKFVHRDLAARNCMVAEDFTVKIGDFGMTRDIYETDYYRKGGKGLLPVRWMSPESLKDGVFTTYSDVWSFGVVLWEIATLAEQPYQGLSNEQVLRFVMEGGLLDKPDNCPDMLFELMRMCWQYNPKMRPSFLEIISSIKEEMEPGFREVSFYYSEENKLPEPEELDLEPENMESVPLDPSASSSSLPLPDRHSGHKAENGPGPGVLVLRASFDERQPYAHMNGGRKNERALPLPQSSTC
Description: as §1, §2

T1 sequence (P06213 28-1382): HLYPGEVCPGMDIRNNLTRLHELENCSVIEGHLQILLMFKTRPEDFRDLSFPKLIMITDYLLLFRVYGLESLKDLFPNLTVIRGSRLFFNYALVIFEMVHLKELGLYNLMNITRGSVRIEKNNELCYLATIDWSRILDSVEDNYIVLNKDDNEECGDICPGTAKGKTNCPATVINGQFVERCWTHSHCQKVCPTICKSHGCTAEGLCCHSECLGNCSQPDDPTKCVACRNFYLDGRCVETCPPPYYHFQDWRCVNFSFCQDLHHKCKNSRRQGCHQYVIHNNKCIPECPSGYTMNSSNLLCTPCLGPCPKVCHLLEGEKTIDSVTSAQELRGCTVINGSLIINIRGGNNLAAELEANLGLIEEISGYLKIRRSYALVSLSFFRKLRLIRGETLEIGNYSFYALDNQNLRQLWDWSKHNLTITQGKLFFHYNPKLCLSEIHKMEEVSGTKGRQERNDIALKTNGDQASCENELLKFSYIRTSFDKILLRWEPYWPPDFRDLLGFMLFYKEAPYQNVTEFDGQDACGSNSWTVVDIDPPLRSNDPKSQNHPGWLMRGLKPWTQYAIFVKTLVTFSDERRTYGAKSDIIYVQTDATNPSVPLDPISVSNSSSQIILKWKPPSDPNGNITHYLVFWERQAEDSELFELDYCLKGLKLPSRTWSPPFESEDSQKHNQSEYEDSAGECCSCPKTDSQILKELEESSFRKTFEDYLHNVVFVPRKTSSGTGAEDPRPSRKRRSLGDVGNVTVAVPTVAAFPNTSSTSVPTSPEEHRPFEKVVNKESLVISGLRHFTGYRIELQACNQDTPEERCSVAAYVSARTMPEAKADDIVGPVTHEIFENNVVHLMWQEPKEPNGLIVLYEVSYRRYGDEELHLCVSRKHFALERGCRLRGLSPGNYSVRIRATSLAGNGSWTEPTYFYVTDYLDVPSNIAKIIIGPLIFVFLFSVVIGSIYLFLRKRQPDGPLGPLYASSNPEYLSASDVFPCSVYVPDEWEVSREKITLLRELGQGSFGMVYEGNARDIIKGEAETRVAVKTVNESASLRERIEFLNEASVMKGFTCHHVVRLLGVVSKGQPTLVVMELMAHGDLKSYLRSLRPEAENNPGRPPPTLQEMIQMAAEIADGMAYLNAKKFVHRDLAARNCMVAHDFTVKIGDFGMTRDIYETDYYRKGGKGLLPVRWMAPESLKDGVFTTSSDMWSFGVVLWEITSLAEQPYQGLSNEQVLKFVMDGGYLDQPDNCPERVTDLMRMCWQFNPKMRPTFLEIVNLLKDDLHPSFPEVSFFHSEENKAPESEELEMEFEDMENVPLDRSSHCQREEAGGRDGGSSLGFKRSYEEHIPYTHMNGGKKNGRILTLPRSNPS

Structure (SMILES) | IC50 [1] | IC50 (COLO205 (colon)) | IC50 [2]
COc1cc(N2CCC(O)CC2)ccc1Nc1nccc(-c2c(-c3cccc(C(=O)Nc4c(F)cccc4F)c3)nc3ccccn23)n1 [Example 73, N-(2,6-difluorophenyl)-3-[3-(2-{[4-(4-hydroxy-1-piperidinyl)-2-(methyloxy)phenyl]amino}-4-pyrimidinyl)imidazo[1,2-a]pyridin-2-yl]benzamide] | 100 to 500 nM | 250 to 1000 nM | < 100 nM
COc1cc(N2CCC(O)CC2)ccc1Nc1nccc(-c2c(-c3ccc(OC)c(C(=O)Nc4c(F)cccc4F)c3)nc3ccccn23)n1 [Example 122, N-(2,6-difluorophenyl)-5-[3-(2-{[4-(4-hydroxy-1-piperidinyl)-2-(methyloxy)phenyl]amino}-4-pyrimidinyl)imidazo[1,2-a]pyridin-2-yl]-2-(methyloxy)benzamide] | < 100 nM | < 250 nM | < 100 nM
COc1cc(N2CCC(N3CCCCC3)CC2)ccc1Nc1nccc(-c2c(-c3ccc(OC)c(C(=O)Nc4c(F)cccc4F)c3)nc3cc(C)ccn23)n1 [Example 4, 5-[3-(2-{[4-(1,4′-bipiperidin-1′-yl)-2-(methyloxy)phenyl]amino}-4-pyrimidinyl)-7-methylimidazo[1,2-a]pyridin-2-yl]-N-(2,6-difluorophenyl)-2-(methyloxy)benzamide] | < 100 nM | 250 to 1000 nM | < 100 nM
Cn1cc(-c2cccc(Nc3nccc(-c4c(-c5cccc(C(=O)Nc6c(F)cccc6F)c5)nc5ccccn45)n3)c2)cn1 [Example 11, N-(2,6-difluorophenyl)-3-[3-(2-{[3-(1-methyl-1H-pyrazol-4-yl)phenyl]amino}-4-pyrimidinyl)imidazo[1,2-a]pyridin-2-yl]benzamide] | 100 to 500 nM | 250 to 1000 nM | 100 to 500 nM
COc1cc(-c2nnc(CN(C)C)o2)ccc1Nc1nccc(-c2c(-c3cccc(C(=O)Nc4c(F)cccc4F)c3)nc3ccccn23)n1 [Example 27, N-(2,6-difluorophenyl)-3-[3-(2-{[4-{5-[(dimethylamino)methyl]-1,3,4-oxadiazol-2-yl}-2-(methyloxy)phenyl]amino}-4-pyrimidinyl)imidazo[1,2-a]pyridin-2-yl]benzamide] | > 500 nM | > 1000 nM | –
COc1ccc(-c2nc3ccccn3c2-c2ccnc(Nc3cccc(OCCN(C)C)c3)n2)cc1C(=O)Nc1c(F)cccc1F [Example 1, N-(2,6-difluorophenyl)-5-(3-{2-[(3-{[2-(dimethylamino)ethyl]oxy}phenyl)-amino]-4-pyrimidinyl}imidazo[1,2-a]pyridin-2-yl)-2-(methyloxy)benzamide] | 100 to 500 nM | < 250 nM | < 100 nM
COc1cc(N2CCC(N3CCC(C)CC3)CC2)ccc1Nc1nccc(-c2c(-c3cccc(C(=O)Nc4c(F)cccc4F)c3)nc3ccccn23)n1 [Example 46, N-(2,6-difluorophenyl)-3-[3-(2-{[4-(4-methyl-1,4′-bipiperidin-1′-yl)-2-(methyloxy)phenyl]amino}-4-pyrimidinyl)imidazo[1,2-a]pyridin-2-yl]benzamide] | 100 to 500 nM | > 1000 nM | 100 to 500 nM
CCc1cc(Nc2nccc(-c3c(-c4ccc(OC)c(C(=O)Nc5c(F)cccc5F)c4)nc4ccccn34)n2)c(OC)cc1N1CCN(CCS(C)(=O)=O)CC1 [Example 187, N-(2,6-difluorophenyl)-5-(3-{2-[(5-ethyl-2-(methyloxy)-4-{4-[2-(methylsulfonyl)ethyl]-1-piperazinyl}phenyl)amino]-4-pyrimidinyl}imidazo[1,2-a]pyridin-2-yl)-2-(methyloxy)benzamide] | < 100 nM | – | < 100 nM
Cc1cc(OC2CCNCC2)ccc1Nc1nccc(-c2c(-c3cccc(C(=O)Nc4c(F)cccc4F)c3)nc3ccccn23)n1 [Example 6, N-(2,6-difluorophenyl)-3-[3-(2-{[2-methyl-4-(4-piperidinyloxy)phenyl]amino}-4-pyrimidinyl)imidazo[1,2-a]pyridin-2-yl]benzamide] | > 500 nM | – | 100 to 500 nM
COc1cc(N2CCC(N3CCN(CCF)CC3)CC2)c(Cl)cc1Nc1nccc(-c2c(-c3cccc(C(=O)Nc4c(F)cccc4F)c3)nc3ccccn23)n1 [Example 112, 3-[3-(2-{[5-chloro-4-{4-[4-(2-fluoroethyl)-1-piperazinyl]-1-piperidinyl}-2-(methyloxy)phenyl]amino}-4-pyrimidinyl)imidazo[1,2-a]pyridin-2-yl]-N-(2,6-difluorophenyl)benzamide] | < 100 nM | – | < 100 nM
Cc1cc(OC2CCN(C)CC2)ccc1Nc1nccc(-c2c(-c3cccc(C(=O)Nc4c(F)cccc4F)c3)nc3ccccn23)n1 [Example 7, N-(2,6-difluorophenyl)-3-{3-[2-({2-methyl-4-[(1-methyl-4-piperidinyl)oxy]phenyl}amino)-4-pyrimidinyl]imidazo[1,2-a]pyridin-2-yl}benzamide] | > 500 nM | – | < 100 nM
CN(C)CCOc1cccc(Nc2nccc(-c3c(-c4cccc(C(=O)Nc5c(F)cccc5F)c4)nc4ccccn34)n2)c1 [Example 20, N-(2,6-difluorophenyl)-3-(3-{2-[(3-{[2-(dimethylamino)ethyl]oxy}phenyl)amino]-4-pyrimidinyl}imidazo[1,2-a]pyridin-2-yl)benzamide] | – | < 250 nM | 100 to 500 nM
COc1cc(CCN2CCN(C)CC2)ccc1Nc1nccc(-c2c(-c3ccc(OC)c(C(=O)Nc4c(F)cccc4F)c3)nc3ccccn23)n1 [Example 131, N-(2,6-difluorophenyl)-2-(methyloxy)-5-{3-[2-({2-(methyloxy)-4-[2-(4-methyl-1-piperazinyl)ethyl]phenyl}amino)-4-pyrimidinyl]imidazo[1,2-a]pyridin-2-yl}benzamide] | – | < 250 nM | < 100 nM
COc1cc(N2CCC(N3CC[C@@H](F)C3)CC2)ccc1Nc1nccc(-c2c(-c3cccc(C(=O)Nc4c(F)cccc4F)c3)nc3ccccn23)n1 [Example 76, N-(2,6-difluorophenyl)-3-[3-(2-{[4-{4-[(3R)-3-fluoro-1-pyrrolidinyl]-1-piperidinyl}-2-(methyloxy)phenyl]amino}-4-pyrimidinyl)imidazo[1,2-a]pyridin-2-yl]benzamide] | – | 250 to 1000 nM | < 100 nM
COc1cc(N2CCC(N3CCC[C@H](O)C3)CC2)ccc1Nc1nccc(-c2c(-c3ccc(OC)c(C(=O)Nc4c(F)cccc4F)c3)nc3ccccn23)n1 [Example 84, N-(2,6-difluorophenyl)-5-[3-(2-{[4-[(3S)-3-hydroxy-1,4′-bipiperidin-1′-yl]-2-(methyloxy)-phenyl]amino}-4-pyrimidinyl)imidazo[1,2-a]pyridin-2-yl]-2-(methyloxy)benzamide] | – | < 250 nM | < 100 nM
COc1cc(CCN2CCCCC2)c(F)cc1Nc1nccc(-c2c(-c3ccc(OC)c(C(=O)Nc4c(F)cccc4F)c3)nc3ccccn23)n1 [Example 127, N-(2,6-difluorophenyl)-5-{3-[2-({5-fluoro-2-(methyloxy)-4-[2-(1-piperidinyl)ethyl]phenyl}-amino)-4-pyrimidinyl}imidazo[1,2-a]pyridin-2-yl}-2-(methyloxy)benzamide] | – | 250 to 1000 nM | < 100 nM
COc1cc(N2CCC(N3CCCCC3)CC2)c(C)cc1Nc1nccc(-c2c(-c3cccc(C(=O)Nc4c(F)cccc4F)c3)nc3ccccn23)n1 [Example 108, 3-[3-(2-{[4-(1,4′-bipiperidin-1′-yl)-5-methyl-2-(methyloxy)phenyl]amino]-4-pyrimidinyl)imidazo[1,2-a]pyridin-2-yl]-N-(2,6-difluorophenyl)benzamide] | < 100 nM | – | < 100 nM
Cc1cc(OC2CCN(CCS(C)(=O)=O)CC2)ccc1Nc1nccc(-c2c(-c3cccc(C(=O)Nc4c(F)cccc4F)c3)nc3ccccn23)n1 [Example 8, N-(2,6-difluorophenyl)-3-[3-(2-{[2-methyl-4-({1-[2-(methylsulfonyl)ethyl]-4-piperidinyl}oxy)phenyl]amino}-4-pyrimidinyl)imidazo[1,2-a]pyridin-2-yl]benzamide] | 100 to 500 nM | – | < 100 nM
COc1cc(N2CCC(OC)CC2)ccc1Nc1nccc(-c2c(-c3ccc(OC)c(C(=O)Nc4c(F)cccc4F)c3)nc3ccccn23)n1 [Example 126, N-(2,6-difluorophenyl)-2-(methyloxy)-5-{3-[2-({2-(methyloxy)-4-[4-(methyloxy)-1-piperidinyl}phenyl}amino)-4-pyrimidinyl]imidazo[1,2-a]pyridin-2-yl]benzamide] | – | 250 to 1000 nM | < 100 nM
